A word on the IC50: it is the concentration needed to halve the response being measured. Low values mean higher potency, high ones lower potency. In general, melting point refers to the temperature of the solid-liquid transition.

The target of data set [1] is T1, Microsomal triglyceride transfer protein (MTP) from bovine liver (Bos taurus, UniProt P55156).
T1 construct: the purified MTP was used for the test; from tissue; host or cells: bovine liver
T1 sequence (P55156 12-887): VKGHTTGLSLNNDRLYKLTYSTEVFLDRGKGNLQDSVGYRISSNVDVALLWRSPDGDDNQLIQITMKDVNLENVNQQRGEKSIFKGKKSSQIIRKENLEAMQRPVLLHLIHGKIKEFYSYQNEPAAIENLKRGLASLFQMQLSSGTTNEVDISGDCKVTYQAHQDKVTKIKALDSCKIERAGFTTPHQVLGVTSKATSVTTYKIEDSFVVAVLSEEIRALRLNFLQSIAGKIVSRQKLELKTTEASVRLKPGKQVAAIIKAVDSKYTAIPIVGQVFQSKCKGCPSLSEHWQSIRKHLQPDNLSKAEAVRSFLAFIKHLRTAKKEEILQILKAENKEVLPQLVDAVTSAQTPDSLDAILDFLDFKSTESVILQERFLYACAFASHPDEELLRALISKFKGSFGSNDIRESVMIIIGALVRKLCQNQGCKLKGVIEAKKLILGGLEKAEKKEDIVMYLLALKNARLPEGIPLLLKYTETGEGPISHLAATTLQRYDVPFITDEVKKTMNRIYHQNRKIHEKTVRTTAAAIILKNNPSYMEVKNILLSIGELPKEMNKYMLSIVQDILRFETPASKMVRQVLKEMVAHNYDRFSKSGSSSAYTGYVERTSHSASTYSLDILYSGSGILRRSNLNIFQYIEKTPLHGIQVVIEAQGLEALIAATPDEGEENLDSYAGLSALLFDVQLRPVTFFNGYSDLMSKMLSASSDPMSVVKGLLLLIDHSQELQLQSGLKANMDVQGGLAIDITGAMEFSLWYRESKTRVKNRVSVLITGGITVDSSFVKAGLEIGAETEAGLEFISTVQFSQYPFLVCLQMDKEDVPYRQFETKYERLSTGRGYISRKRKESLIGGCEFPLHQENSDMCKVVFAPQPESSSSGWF
T1 sequence (P05307 21-510 partner): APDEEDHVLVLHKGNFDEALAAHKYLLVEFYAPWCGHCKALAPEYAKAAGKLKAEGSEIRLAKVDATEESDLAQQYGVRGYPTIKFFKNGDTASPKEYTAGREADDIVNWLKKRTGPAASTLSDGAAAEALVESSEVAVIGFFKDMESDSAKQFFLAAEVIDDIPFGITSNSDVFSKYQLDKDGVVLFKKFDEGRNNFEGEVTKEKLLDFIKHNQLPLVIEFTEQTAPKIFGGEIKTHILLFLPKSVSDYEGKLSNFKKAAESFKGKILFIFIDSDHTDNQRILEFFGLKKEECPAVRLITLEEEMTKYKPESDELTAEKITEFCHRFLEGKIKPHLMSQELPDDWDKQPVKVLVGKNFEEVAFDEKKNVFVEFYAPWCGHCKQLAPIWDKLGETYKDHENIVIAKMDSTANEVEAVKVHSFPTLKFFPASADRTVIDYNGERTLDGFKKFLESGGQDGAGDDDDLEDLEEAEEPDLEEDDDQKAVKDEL
Description: Inhibition of interliposomal triglyceride (TG) transfer activity by MTP. Type of data set: biochemical. The conditions noted are these: MTP-mediated TG transfer between donor and acceptor liposomes, 37° C., one hour. As for the experimental part: Microsomal triglyceride transfer protein (MTP) from bovine liver was partially purified in such a way described below. A buffer (50 mM Tris, 250 mM sucrose, 1 mM EDTA, 0.02% NaN3 (pH 7.4)) for making a homogenate preparation was added to bovine liver, and the mixture was homogenated under ice-cooling, then centrifuged at 10,000×g (4° C., 30 minutes) The supernatant was adjusted to pH 5.1 with hydrochloric acid, and stirred for 30 minutes. The solution was further centrifuged at 10,000×g (4° C., 30 minutes), and 1 mM Tris buffer was added to the precipitated residue, and the mixture was adjusted to pH 8.6 with sodium hydroxide. After addition of 2.7 M ammonium sulfate solution, the mixture was stirred for 30 minutes, then centrifuged at 10,000×g (4° C., 40 minutes). The resulting supernatant was served as a crude extraction fraction of MTP and stored at −80° C. under freezing. In its practical use, the crude extraction fraction of MTP was purified by column chromatography on diethylaminoethyl (DEAE) Sepharose using FPLC (Fast Performance Liquid Chromatography) system, and the purified MTP was used for the test.
Small unilamellar-vesicle (SUV) liposome (donor, 0.25 mol % triolein, 5 mol % cardiolipin) labeled with ^14C-triolein and non-labeled SUV liposome (acceptor, 0.25 mol % triolein) were prepared. A fixed amount of donor and acceptor, and MTP were mixed with a sample dissolved in DMSO or with DMSO. The mixture was incubated in a 15 mM Tris hydrochloride buffer (pH 7.4) containing 40 mM sodium chloride, 1 mM EDTA (ethylenediaminetetraacetic acid), 0.02% NaN3 and 0.5% bovine serum albumin at 37° C. for one hour. After completion of the incubation, a suspension of DEAE cellulose (50% v/v) in 15 mM Tris hydrochloride buffer (pH 7.4) was added to the above solution, and the mixture was centrifuged to separate the donor and the acceptor. The radioactivity in the acceptor was measured by liquid scintillation counter. The value obtained by subtracting the radioactivity in the blank from the amount of radioactivity in the acceptor of a DMSO group was determined as MTP-mediated TG transfer activity, and it was compared with the value obtained by subtracting the radioactivity in the blank from the radioactivity in a sample group. The blank was prepared by adding 15 mM Tris-HCl buffer (pH 7.4) in place of MTP. Inhibition rate (%) was calculated from the values obtained according to the following equation.
Inhibition rate (%)=100×(1 minus ((radioactivity of sample group minus radioactivity of blank group)/(radioactivity of DMSO group minus radioactivity of blank group))). 50% Inhibition rate (IC50) was determined on the basis of the above equation.

The test system of data set [2] is apolipoprotein B secretion from HepG2 cells. Description: Inhibition of apolipoprotein B secretion from HepG2 cells. The conditions noted are these: Homo sapiens, about 20 hours incubation, apo B in supernatant by ELISA. Type of data set: cell-based. As for the experimental part:
HepG2 cells were suspended in Dulbecco's Modified Eagle's Medium (DMEM) (containing 10% fetal bovine serum, 100 units/mL penicillin and 100 μg/mL streptomycin), and placed on a 96-well plate (4×10^4 cells/well), then incubated for 24 hours. After removal of the medium, DMEM was replaced by a medium containing a sample dissolved in DMSO or a medium containing DMSO (concentration of DMSO: 0.5%) and incubation was further performed for about 20 hours, after which the supernatant was recovered, and concentration of apo B in the supernatant was assayed by Enzyme-Linked Immunosorbent Assay (ELISA)
ELISA was carried out as follows. Anti-human apo B monoclonal antibody (0.5 μg/well) diluted with a 50 mM sodium carbonate/sodium bicarbonate buffer was placed in a 96-well plate for ELISA, and allowed to stand at room temperature for 15 hours. After washing the plate, a blocking solution (250 μL/well) was placed in the well, and allowed to stand at room temperature for 1.5 hours. After washing the plate, a standard and a sample (100 μL/well) were placed in the well and allowed to stand at room temperature for 1.5 hours. The standard was prepared by adjusting the concentration of the purified human apo B with the DMEM to 0 to 250 ng/mL. After washing the plate, an anti-human apo B polyclonal antibody labeled with a horse radish peroxidase which was diluted in 1:1000 with DEME (100 μL/well) was added, and allowed to stand at room temperature for 1.5 hours. After washing the plate, 2,2-azinobis(3-ethylbenzothiazoline-6-sulfonic acid) solution (100 μL/well) was placed in the well, and allowed to stand at room temperature for 0.5 hour. The reaction was stopped by addition of 2% oxalic acid (100 μL/well), and absorbency at 405 nm was measured. Concentration of apo B in the sample was calculated on the basis of a standard curve of the standard. Inhibition rate (%) was calculated from the assayed values in accordance with the following equation. Inhibition rate (%)=100×(1 minus (concentration of apo B in sample group/concentration of apo B in DMSO group).
Based on the above equation, 50% inhibition concentration (IC50) was determined.
(In general: ELISA stands for enzyme-linked immunosorbent assay.)

Where only a bound is given, the exact number is not on record here.

Turning to `CCOC(=O)C(COC(=O)Cc1ccc(NC(=O)c2ccccc2-c2ccc(C(F)(F)F)cc2)c(OC(=O)COC)c1)(C(=O)OCC)c1ccccc1` [Example 1-3], the half-maximal inhibitory concentration (IC50) is less than 10 nM in data set [1] and less than 1000 nM in data set [2]. Taken in the same sequence, the figures for `CCOC(=O)C(COC(=O)Cc1cccc(NC(=O)c2ccccc2-c2ccc(C(F)(F)F)cc2)c1OC(C)=O)(C(=O)OCC)c1ccccc1` [Example 1-4] were 10 to 100 nM and less than 10000 nM.

On to `CCOC(=O)C(COC(=O)COc1ccc(NC(=O)c2ccccc2-c2ccc(C(F)(F)F)cc2)c(C(=O)N(C)C)c1)(C(=O)OCC)c1ccccc1` [Example 3-2, 2-(2-{3-Dimethylcarbamoyl-4-[(4′-trifluoromethylbiphenyl-2-carbonyl)amino]phenoxy}acetoxymethyl)-2-phenylmalonic acid diethyl ester], for which the melting point fell in the range of 132 to 138 °C. Besides, the IC50 in data set [1] was less than 10 nM. Take `CCOC(=O)C(COC(=O)Cc1ccc(NC(=O)c2ccccc2-c2ccc(C(F)(F)F)cc2)c(OC(=O)CC)c1)(C(=O)OCC)c1ccccc1` [Example 1-2]: the half-inhibitory concentration (IC50) in data set [1] is less than 10 nM; in data set [2], less than 1000 nM.

Consider `CCOC(=O)C(COC(=O)Oc1c(F)cc(NC(=O)c2ccc(C)cc2-c2ccc(C(F)(F)F)cc2)c(C(=O)N2CCOCC2)c1F)(C(=O)OCC)c1cccs1` [Example 2-43], for which, in data set [1], the half-inhibitory concentration (IC50) was in the range of 10 to 100 nM. Molecule `CCOC(=O)C(COC(=O)Oc1ccc(NC(=O)c2ccccc2-c2ccc(C(F)(F)F)cc2)c(C(=O)N(C)C)c1)(C(=O)OCC)c1cccs1` [Example 2-7] returned a 50% inhibitory concentration (IC50) in data set [1] of less than 10 nM. The molecule `CCOC(=O)C(COC(=O)Oc1ccc(NC(=O)c2ccc(C(F)(F)F)nc2-c2ccc(C(F)(F)F)cc2)c(C(=O)N(C)C)c1)(C(=O)OCC)c1ccccc1` [Example 2-16] came in with a concentration for half-maximal inhibition (IC50) in data set [1] of less than 10 nM. Still for that read-out and setting: the value for `CCOC(=O)C(COC(=O)Oc1ccc2c(c1)CCN2C(=O)c1ccccc1-c1ccc(C(F)(F)F)cc1)(C(=O)OCC)c1ccccc1` [Example 2-3] was 10 to 100 nM; that for `CCOC(=O)C(CCC(=O)Oc1c(F)cc(NC(=O)c2ccccc2-c2ccc(C(F)(F)F)cc2)c(C(=O)N(C)C)c1F)(C(=O)OCC)c1ccccc1` [Example 3-9] was less than 10 nM.

As to `CCOC(=O)C(COC(=O)Cc1ccc(NC(=O)c2ccc(C)cc2-c2ccc(C(F)(F)F)cc2)c(OC(=O)CC)c1)(C(=O)OCC)c1ccccc1` [Example 1-6], in data set [1], the IC50 was less than 10 nM.

Take `CCNC(=O)C(COCCC(=O)Oc1ccc(NC(=O)c2ccccc2-c2ccc(C(F)(F)F)cc2)c(C(=O)N(C)C)c1)(C(=O)NCC)c1ccccc1` [Example 3-3, 3-(2,2′-Bisethylcarbamoyl-2-phenylethoxy)propionic acid 3-dimethylcarbamoyl-4-[(4′-trifluoromethylbiphenyl-2-carbonyl)amino]phenyl ester]: the concentration for half-maximal inhibition (IC50) in data set [1] was less than 10 nM. On the same count and under the same terms, the value for `CCOC(=O)C(COC(=O)Oc1ccc2c(c1)N(C(C)C)C(=O)CN2C(=O)c1ccccc1-c1ccc(C(F)(F)F)cc1)(C(=O)OCC)c1ccccc1` [Example 2-2, 2-[4-Isopropyl-3-oxo-1-(4′-trifluoromethylbiphenyl-2-carbonyl)-1,2,3,4-tetrahydroquinoxalin-6-yloxycarbonyloxymethyl]-2-phenylmalonic acid diethyl ester] was less than 10 nM. Still for that read-out and setting: the value for `CCNC(=O)C(COCC(=O)Oc1ccc(NC(=O)c2ccccc2-c2ccc(C(F)(F)F)cc2)c(C(=O)N(C)C)c1)(C(=O)NCC)c1ccccc1` [Example 3-12] was less than 10 nM; that for `CCOC(=O)C(COC(=O)Oc1c(F)cc(NC(=O)c2ccccc2-c2ccc(C(F)(F)F)cc2)c(C(=O)N(C)CCO)c1F)(C(=O)OCC)c1cccs1` [Example 2-45] was 100 to 1000 nM. For `CCNC(=O)C(COC(=O)Oc1ccc(NC(=O)c2ccccc2-c2ccc(C(F)(F)F)cc2)c(C(=O)N(C)C)c1)(C(=O)NCC)c1ccccc1` [Example 2-10], the IC50 in data set [1] was less than 10 nM. The same measure, in the same setting: the value for `CCOC(=O)C(COC(=O)Oc1c(F)cc(NC(=O)c2ccccc2-c2ccc(C(F)(F)F)cc2)c(C(=O)N2CCOCC2)c1F)(C(=O)OCC)c1cccs1` [Example 2-38] was 10 to 100 nM. On the same count and under the same terms, the value for `CCOC(=O)C(COC(=O)Oc1c(F)cc(NC(=O)c2ccc(C)cc2-c2ccc(C(F)(F)F)cc2)c(C(=O)N(C)C)c1F)(C(=O)OCC)c1cccs1` [Example 2-29] was less than 10 nM.

In data set [1], `CCOC(=O)C(CC(=O)OCc1ccc(NC(=O)c2ccccc2-c2ccc(C(F)(F)F)cc2)c(C(=O)N(C)C)c1)(C(=O)OCC)c1ccccc1` [Example 3-5] showed an IC50 of less than 10 nM.

These data come from patent US7432392B2, “Ester derivatives and medical use thereof” (Japan Tobacco Inc., priority 2003, dated 2008).
